Results reported in patent US20240025918A1, “KRAS G12D Inhibitors” (Jacobio Pharmaceuticals Co., Ltd, priority 2020, published 2024).

How the values were obtained:
[1] = biological target: T1, GDP-loaded HIS-KRAS(G12D, aa 1-169) (Homo sapiens, UniProt P01116, G12D); test: SOS1 catalyzed nucleotide exchange assay (TR-FRET); format: biochemical; conditions: 4 hours at 25° C.
T1 construct: GDP-loaded HIS-KRAS(G12D, aa 1-169)
Description: GDP-loaded HIS-KRAS(G12D, aa 1-169) was pre-incubated with a compound in the presence of 10 nM GDPin a 384-well plate (Greiner) for 15 min, then purified SOS1 ExD(Flag tag, aa 564-1049), BODIPY™ FL GTP (Invitrogen) and MAb (monoclonal antibody) Anti 6HIS-Tb cryptate Gold (Cisbio) were added to the assay wells (Final concentration: 1.5 nM GDP-loaded HIS-KRAS(G12D), 5 nM GDP, 0.5 μM SOS1 ExD, 80 nM BODIPY™ FL GTP, 52.5 ng/mL MAb Anti 6HIS-Tb cryptate Gold) and incubated for 4 hours at 25° C. Wells containing same percent of DMSO served as vehicle control, and wells without KRAS served as low control. TR-FRET signals were read on Tecan Spark multimode microplate reader. The parameters were F486: Excitation 340 nm, Emission 486 nm, Lag time 100 μs, Integration time 200 μs; F515: Excitation 340 nm, Emission 515 nm, Lag time 100 μs, Integration time 200 μs. TR-FRET ratios for each individual wells were calculated by equation: TR-FRET ratio=(Signal F515/Signal F486)*10000. The percent of activation of compounds treated wells were normalized between vehicle control and low control (% Activation=(TR-FRET ratioCompound treated−TR-FRET ratioLow control)/(TR-FRET ratioVehicle control−TR-FRET ratioLow control)*100%). Then the data were analyzed by fitting a 4-parameter logistic model or calculating in Excel to calculate IC50 values.

[2] = system: AGS cells expressing KRAS G12D; test: Phospho-ERK1/2(THR202/TYR204) HTRF assay; format: cell-based; conditions: Homo sapiens; Phospho-ERK1/2 in AGS cells, 2 hours incubation
Description: AGS cells expressing KRAS G12D were cultured in F12K medium (Gibco) containing 10% fetal bovine serum (Gibco). The AGS cells in culture medium were seeded in 96-well plates at a concentration of 40,000 cells/well and then put in a 37° C./5% CO2 cell incubator to incubate overnight. The next day, culture medium was removed and the compound diluted in assay medium (F12K, 0.1% FBS) was added in each well. After 2 hours incubation in a 37° C./5% CO2 cell incubator, the assay medium in 96-well plates was removed, then 50 μL of 1× blocking reagent-supplemented lysis buffer (Cisbio) was added and the plates were incubated at 25° C. for 45 min with shaking. 10 μL of cell lysates from the 96-well plates were transferred to a 384-well plate (Greiner) containing 2.5 μL/well HTRF® pre-mixed antibodies (Cisbio 64AERPEH). Incubate 4 hours at 25° C. and then read HTRF signals on Tecan Spark multimode microplate reader. The data were analyzed using a 4-parameter logistic model to calculate IC50 values.

[3] = biological target: T2, GppNp-loaded HIS-KRAS(G12D, aa 1-169) and cRAF RBD (Homo sapiens, UniProt P01116, G12D); test: GTP-KRAS and cRAF interaction assay (HTRF); format: biochemical; conditions: 2 hours at 25° C.
T2 construct: GppNp-loaded HIS-KRAS(G12D, aa 1-169)
Description: GppNp-loaded HIS-KRAS(G12D, aa 1-169) was pre-incubated with a compound in the presence of 200 μM GTP in a 384-well plate (Greiner) for 15 min, then cRAF RBD(GST tag, aa 50-132, CreativeBioMart), MAb Anti GST-d2 (Cisbio) and MAb Anti 6HIS-Tb cryptate Gold (Cisbio) were added to the assay wells (Final concentration: 2.0 nM GppNp-loaded HIS-KRAS(G12D), 100 μM GTP, 35 nM cRAF RBD, 1 μg/mL MAb Anti GST-d2, 52.5 ng/mL MAb Anti 6HIS-Tb cryptate Gold) and incubated for 2 hours at 25° C. Wells containing same percent of DMSO served as vehicle control, and wells without KRAS served as low control. HTRF signals were read on Tecan Spark multimode microplate reader and HTRF ratios were calculated under manufacturer's instructions. The percent of activation of compounds treated wells were normalized between vehicle control and low control (% Activation=(HTRF ratioCompound treated−HTRF ratioLow control)/(HTRF ratioVehicle control−HTRF ratioLow control)*100%). Then the data were analyzed by fitting a 4-parameter logistic model or calculating in Excel to calculate IC50 values.

AGS = test: Cell growth inhibition assay, AGS (CellTiter-Glo); format: cell-based; conditions: Homo sapiens, 144 h; AGS cell viability, 6 days incubation
Description: AGS cultured in F12K medium (Gibco) containing 10% fetal bovine serum (Gibco). Cells in culture medium were plated in 96-well plates at a concentration of 500 cells/well (100 μL/well) and allowed to attach overnight.
(§1) The next day, compounds were diluted in culture medium and added to the plates. After 6 days incubation in a 37° C./5% CO2 cell incubator, the cell viability was detected by CellTiter-Glo® Luminescent Cell Viability Assay kit (Promega). Luminescent signals were read on Tecan Spark multimode microplate reader and analyzed using a 4-parameter logistic model to calculate IC50 values.

AsPC-1 = test: Cell growth inhibition assay, AsPC-1 (CellTiter-Glo); format: cell-based; conditions: Homo sapiens, ASPC1, 144 h; AsPC-1 cell viability, 6 days incubation
Description: AsPC-1 cultured in RPMI-1640 medium (Gibco) containing 10% fetal bovine serum (Gibco). Cells in culture medium were plated in 96-well plates at a concentration of 1000 cells/well (100 μL/well) and allowed to attach overnight.
as §1

T1 sequence (P01116 1-169 isoform P01116-2 G12D): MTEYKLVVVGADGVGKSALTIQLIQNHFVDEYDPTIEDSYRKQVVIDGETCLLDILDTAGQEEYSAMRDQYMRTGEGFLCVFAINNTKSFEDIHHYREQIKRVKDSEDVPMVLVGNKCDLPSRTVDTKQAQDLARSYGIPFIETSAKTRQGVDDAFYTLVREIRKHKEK
T2 sequence (P01116 1-169 isoform P01116-2 G12D): as above

Molecule `C#Cc1cccc2cc(O)cc(-c3c(F)cc4c(N5CC6CCC(C5)N6)nc(OCC5(CN6CCCOCC6)CC5)nc4c3F)c12` [Compound 37] has an IC50 [1] of 4.36 nM, an IC50 [2] of 10.9 nM and an IC50 [3] of 50.1 nM. For the same molecule, the IC50 (AGS) was 6.48 nM and the IC50 (AsPC-1) was 89.9 nM.
`C#Cc1cccc2cc(O)cc(-c3c(F)cc4c(N5CC6CCC(C5)N6)nc(OCC5(CN6CCC7(CCOC7)C6)CC5)nc4c3F)c12` (centres unmarked) [Compound 45] was tested, and the IC50 [1] was 26.4 nM, the IC50 [2] was 125 nM and the IC50 [3] was 408 nM. For the same molecule, the IC50 (AGS) was 74.2 nM and the IC50 (AsPC-1) was 653 nM.
For `C#Cc1cccc2cc(O)cc(-c3c(F)cc4c(N5CC6CCC(C5)N6)nc(OCC5(CN6CC7(CCOC7)C6)CC5)nc4c3F)c12` [Compound 46], the IC50 [1] was 5.92 nM, the IC50 [2] was 23.1 nM and the IC50 [3] was 242 nM. The IC50 (AGS) was 55.4 nM and the IC50 (AsPC-1) was 488 nM.
`C#Cc1cccc2cc(O)cc(-c3c(F)cc4c(N5CC6CCC(C5)N6)nc(OCC5(CN6CCC7(CCCO7)C6)CC5)nc4c3F)c12` (centres unmarked) [Compound 47] gave an IC50 [1] of 2.58 nM, an IC50 [2] of 31.4 nM and an IC50 [3] of 92.1 nM. The IC50 (AGS) was 29 nM and the IC50 (AsPC-1) was 227 nM.
Work on `C#Cc1cccc2cc(O)cc(-c3c(F)cc4c(N5CC6CCC(C5)N6)nc(OCC5(CN6CC7(CCCCO7)C6)CC5)nc4c3F)c12` [Compound 48] yielded an IC50 [1] of 1.49 nM, an IC50 [2] of 38.6 nM and an IC50 [3] of 118 nM. It also gave an IC50 (AGS) of 36.4 nM and an IC50 (AsPC-1) of 315 nM.
`C#Cc1cccc2cc(O)cc(-c3c(F)cc4c(N5CC6CCC(C5)N6)nc(OCC5(CN6C[C@@H]7OCCO[C@@H]7C6)CC5)nc4c3F)c12` [Compound 50] showed an IC50 [1] of 1.39 nM, an IC50 [2] of 9.39 nM and an IC50 [3] of 42.5 nM. The IC50 (AGS) was 3.49 nM and the IC50 (AsPC-1) was 70 nM.
Work on `C#Cc1cccc2cc(O)cc(-c3c(F)cc4c(N5CC6CCC(C5)N6)nc(OCC5(CN6C7CCC6CC(=O)C7)CC5)nc4c3F)c12` [Compound 51] yielded an IC50 [1] of 1.26 nM, an IC50 [2] of 12.1 nM and an IC50 [3] of 59.4 nM. The IC50 (AGS) was 1.25 nM and the IC50 (AsPC-1) was 66 nM.
With `C#Cc1cccc2cc(O)cc(-c3c(F)cc4c(N5CC6CCC(C5)N6)nc(OCC5(CN6CCc7sccc7C6)CC5)nc4c3F)c12` [Compound 52] the IC50 [1] was 4.26 nM, the IC50 [2] was 271 nM and the IC50 [3] was 286 nM. The IC50 (AGS) was 32.4 nM and the IC50 (AsPC-1) was 93 nM.
`C#Cc1cccc2cc(O)cc(-c3c(F)cc4c(N5CC6CCC(C5)N6)nc(OCC5(CN6CCC7(CCOCC7)C6)CC5)nc4c3F)c12` [Compound 55] was tested, and the IC50 [1] was 1.37 nM, the IC50 [2] was 5.39 nM and the IC50 [3] was 23.1 nM. It also gave an IC50 (AGS) of 7.71 nM and an IC50 (AsPC-1) of 77 nM.
`C#Cc1cccc2cc(O)cc(-c3c(F)cc4c(N5CC6CCC(C5)N6)nc(OCC5(CN6CC7(CCO7)C6)CC5)nc4c3F)c12` [Compound 56] showed an IC50 [1] of 2.05 nM, an IC50 [2] of 7.66 nM and an IC50 [3] of 53.2 nM. The IC50 (AGS) was 14.9 nM and the IC50 (AsPC-1) was 182 nM.
